Results from patent US10604512B2, “3-(1H-indol-2-yl)-1H-indazoles and therapeutic uses thereof” (Samumed, LLC, priority 2015, dated 2020).
pEC50: −log10 of the molar value.

Assays:
Assay type in all cases: cell-based
[1] = system: Wnt activity (Sp5-Luc reporter, TCF/LEF binding sites) in SW480 colon carcinoma cells; experiment: Screening assay for Wnt activity: Sp5-Luc reporter gene assay in stably transduced SW480 colon carcinoma cells; settings: Homo sapiens, overnight incubation, 10-point curve from 10 μM
Excerpt: The screening assay for Wnt activity is described as follows. Reporter cell lines can be generated by stably transducing cancer cell lines (e.g., colon cancer) or primary cells (e.g., IEC-6 intestinal cells) with a lentiviral construct that includes a Wnt-responsive promoter driving expression of the firefly luciferase gene.
SW480 colon carcinoma cells were transduced with a lentiviral vector expressing luciferase with a human Sp5 promoter consisting of a sequence of eight TCF/LEF binding sites. SW480 cells stably expressing the Sp5-Luc reporter gene and a hygromycin resistance gene were selected by treatment with 150 μg/mL of hygromycin for 7 days. These stably transduced SW480 cells were expanded in cell culture and used for all further screening activities. Each compound was dissolved in DMSO as a 10 mM stock and used to prepare compound source plates. Serial dilution (1:3, 10-point dose-response curves starting from 10 μM) and compound transfer was performed using the ECHO 550 (Labcyte, Sunnyvale, Calif.) into 384-well white solid bottom assay plates (Greiner Bio-One) with appropriate DMSO backfill for a final DMSO concentration of 0.1%. For Sp5-Luc reporter gene assays, the cells were plated at 4,000 cells/well in 384-well plates with medium containing 1% fetal bovine serum and incubated overnight at 37° C. and 5% CO2. Following incubation, 20 μl of BrightGlo luminescence reagent (Promega) was added to each well of the 384-well assay plates. The plates were placed on an orbital shaker for 2 min and then luminescence was quantified using the Envision (Perkin Elmer) plate reader. Readings were normalized to DMSO only treated cells, and normalized activities were utilized for EC50 calculations using the dose-response log (inhibitor) vs. response variable slope (four parameters) nonlinear regression feature available in GraphPad Prism 5.0 (or Dotmatics). For EC50 of >10 μM, the percent inhibition at 10 μM is provided.

[2] = system: Primary human fibroblasts derived from IPF patients (LL29 cells) treated with TGF-β1; experiment: Inhibition of the fibrotic process: αSMA staining in TGF-β1-treated primary human fibroblasts from IPF patients (LL29 cells); settings: Fibroblast, 96 h, % αSMA-positive LL29 cells, TGF-β1 20 ng/mL, 4 days
Excerpt: Representative compounds were screened using primary human fibroblasts (derived from IPF patients) treated with TGF-β1 to determine their ability to inhibit the fibrotic process.
Primary human fibroblasts derived from IPF patients (LL29 cells) [^1Xiaoqiu Liu, et. al., “Fibrotic Lung Fibroblasts Show Blunted Inhibition by cAMP Due to Deficient cAMP Response Element-Binding Protein Phosphorylation”, Journal of Pharmacology and Experimental Therapeutics (2005), 315(2), 678-687; ^2Watts, K. L., et. al., “RhoA signaling modulates cyclin D1 expression in human lung fibroblasts; implications for idiopathic pulmonary fibrosis”, Respiratory Research (2006), 7(1), 88] were obtained from American Type Culture Collection (ATCC) and expanded in F12 medium supplemented with 15% Fetal Bovine Serum and Penicillin/Streptomycin.
Each compound was dissolved in DMSO as a 10 mM stock and used to prepare compound source plates. Serial dilution (1:2, 11-point dose-response curves from 10 μM to […]) and compound transfer was performed using the ECHO 550 (Labcyte, Sunnyvale, Calif.) into 384-well clear bottom assay plates (Greiner Bio-One) with appropriate DMSO backfill for a final DMSO concentration of 0.1%. LL29 cells are plated at 1,500 cells/well in 80 μL/well F12 medium supplemented with 1% Fetal Bovine Serum. One hour after addition of the cells, TGF-β1 (Peprotech; 20 ng/mL) was added to the plates to induce fibrosis (ref 1 and 2 above). Wells treated with TGF-β1 and containing DMSO were used as controls. Cells were incubated at 37° C. and 5% CO2 for 4 days. Following incubation for 4 days, SYTOX green nucleic acid stain (Life Technologies [Thermo Fisher Scientific]) was added to the wells at a final concentration of 1 μM and incubated at room temperature for 30 min. Cells were then fixed using 4% formaldehyde (Electron Microscopy Sciences), washed 3 times with PBS followed by blocking and permeabilization using 3% Bovine Serum Albumin (BSA; Sigma) and 0.3% Triton X-100 (Sigma) in PBS. Cells were then stained with antibody specific to α-smooth muscle actin (αSMA; Abcam) (ref 1 and 2 above) in 3% Bovine Serum Albumin (BSA; Sigma) and 0.3% Triton X-100 (Sigma) in PBS, and incubated overnight at 4° C. Cells were then washed 3 times with PBS, followed by incubation with Alexa Flor-647 conjugated secondary antibody (Life Technologies [Thermo Fisher Scientific]) and DAPI at room temperature for 1 hour. Cells were then washed 3 times with PBS and plates were sealed for imaging. αSMA staining was imaged by excitation at 630 nm and emission at 665 nm and quantified using the Compartmental Analysis program on the CellInsight CX5 (Thermo Scientific). Dead or apoptotic cells were excluded from analysis based on positive SYTOX green staining. % of total cells positive for αSMA were counted in each well and normalized to the average of 11 wells treated with TGF-β1 on the same plate using Dotmatics' Studies Software. The normalized averages (fold change over untreated) of 3 replicate wells for each compound concentration were used to create dose-responses curves and EC50 values were calculated using non-linear regression curve fit in the Dotmatics' Studies Software. For EC50 of >10 μM, the percent inhibition at 10 μM is provided.

IL-6 = experiment: Inhibition of IL-6 in LPS-stimulated THP-1 human monocyte cells (HTRF); settings: for pEC50: IL-6 inhibition, LPS-stimulated THP-1 cells, HTRF
Description: Human monocyte cell line (THP-1 cells; Catalog # TIB-202, ATCC, Manassas, Va.) were cultured in Roswell Park Memorial Institute (RPMI) 1640 Medium (Catalog #21870-100, Buffalo, N.Y.) with 1% L-glutamine, 1% HEPES, 1% Sodium Pyruvate, 2% Sodium Bicarbonate supplemented with 100 units/mL penicillin, 50 μg/mL streptomycin, 2-mercaptoethanol (0.05 mM) [basal medium] and 10% fetal bovine serum (Catalog #16140089, Life Technologies, Carlsbad, Calif.) at 37° C. and 5% CO2.
THP-1 cells were cultured in basal media with 1% FBS for 24 hours before the start of the assay. Each compound was dissolved in DMSO as a 10 mM stock and used to prepare compound source plates. Serial dilution (1:3, 10-point dose-response curves starting from 10 μM) and compound transfer was performed using the ECHO 550 (Labcyte, Sunnyvale, Calif.) into 384-well white low volume assay plates (Greiner Bio-One) with appropriate DMSO backfill for a final DMSO concentration of 0.1%. THP-1 cells were plated at 5000 cells/well in the 384-well plates and incubated at 37° C. for 2 h. 500 ng/mL of LPS was added after 2 hours and cells were incubated for another 22 hours at 37° C. Plates were spun in a centrifuge for 1 minute at […] and a mixture of anti-IL6 XL665, and anti-IL6 Cryptate diluted in reconstitution buffer (Cisbio Inc.) was added to each well. Following incubation for 3 hrs at room temperature, Homogeneous Time-Resolved Fluorescence (HTRF) was measured using the Envision (Perkin Elmer) at 665 nm and […]. The ratio of fluorescence at 665 nm to 620 nm was used as a readout for IL6 quantification. All samples were processed in duplicate. Readings were normalized to DMSO treated cells and normalized activities were utilized for EC50 calculations using the dose-response log (inhibitor) vs. response variable slope (four parameters) nonlinear regression feature available in GraphPad Prism 5.0 (or Dotmatics). For EC50 of >10 μM, the percent inhibition at 10 μM is provided.

SW480 colon cancer cells = experiment: Cell viability assay (CellTiter-Blue) in SW480 colon cancer cells; settings: Homo sapiens, 96 h, four days, CellTiter-Blue
Description: Representative compounds were screened using the following assay procedure to assess the effect on cell viability as described below.
Each compound was dissolved in DMSO as a 10 mM stock and used to prepare compound source plates. Serial dilution (1:3, 8-point dose-response curves from 10 μM to 0.0045 μM) and compound transfer was performed using the ECHO 550 (Labcyte, Sunnyvale, Calif.) into 96-well clear bottom, black-walled plates (Corning-Costar).
Approximately 2×10^3 SW480 colon cancer cells were seeded into each well and allowed to incubate in the presence or absence of compound for four days at 37° C./5% CO2. Eight replicates of DMSO-treated cells served as controls and cells treated with compound were performed in duplicate.
After incubation, 20 μL of CellTiter-Blue (Promega) was added to each well allowed to incubate for approximately 3 hours. This reagent was a buffered solution which contains resazurin, metabolically active cells were able to reduce rezarurin (blue) into resorufin (pink) which was highly fluorescent. This measured fluorescence was used as a readout for cell viability.
After incubation, the plates were read at Ex 560 nm Em 590 nm (Cytation 3, BioTek). Dose-response curves were generated and EC50 concentration values were calculated using non-linear regression curve fit in the GraphPad Prism (San Diego, Calif.) or Dotmatics' Studies Software (Bishops Stortford, UK). For EC50 of >10 μM, the percent inhibition at 10 μM is provided.

pEC50 [1]	pEC50 (IL-6)	pEC50 (SW480 colon cancer cells)	Structure (SMILES)	pEC50 [2]	inhibition at 10 µM (IL-6; THP-1, printed beside >10 μM EC50, top concentration 10 μM, meaning not given, read-out: percentage in parentheses after EC50 >10) [%]
6.73	6.79	6.04	CC(C)CC(=O)Nc1cncc(-c2ccc3[nH]nc(-c4cc5c(-c6ccccn6)cccc5[nH]4)c3c2)c1 [Compound 142, 3-Methyl-N-(5-(3-(4-(pyridin-2-yl)-1H-indol-2-yl)-1H-indazol-5-yl)pyridin-3-yl)butanamide]	6.51	–
6.09	5.89	5.43	O=C(Cc1ccccc1)Nc1cncc(-c2ccc3[nH]nc(-c4cc5c(N6CCCCC6)cccc5[nH]4)c3c2)c1 [Compound 178, 2-Phenyl-N-(5-(3-(4-(piperidin-1-yl)-1H-indol-2-yl)-1H-indazol-5-yl)pyridin-3-yl)acetamide]	6.00	–
6.32	6.76	5.73	CC(C)(C)CC(=O)Nc1cncc(-c2ccc3[nH]nc(-c4cc5c(-c6cccnc6)cccc5[nH]4)c3c2)c1 [Compound 100, 3,3-Dimethyl-N-(5-(3-(4-(pyridin-3-yl)-1H-indol-2-yl)-1H-indazol-5-yl)pyridin-3-yl)butanamide]	6.35	–
6.54	7.00	6.13	CN1CCN(c2cccc3[nH]c(-c4n[nH]c5ccc(-c6cncc(CN7CCC(F)(F)C7)c6)cc45)cc23)CC1 [Compound 250, 5-(5-((3,3-Difluoropyrrolidin-1-yl)methyl)pyridin-3-yl)-3-(4-(4-methylpiperazin-1-yl)-1H-indol-2-yl)-1H-indazole]	6.44	–
6.45	6.60	6.17	CC(C)Nc1cncc(-c2ccc3[nH]nc(-c4cc5c(N6CCN(C)CC6)cccc5[nH]4)c3c2)c1 [Compound 236, N-Isopropyl-5-(3-(4-(4-methylpiperazin-1-yl)-1H-indol-2-yl)-1H-indazol-5-yl)pyridin-3-amine]	6.12	–
6.19	5.69	5.50	CS(=O)(=O)NCc1cc(F)cc(-c2cccc3[nH]c(-c4n[nH]c5ccc(-c6cncc(NC(=O)c7ccccc7)c6)cc45)cc23)c1 [Compound 487, N-(5-(3-(4-(3-Fluoro-5-(methylsulfonamidomethyl)phenyl)-1H-indol-2-yl)-1H-indazol-5-yl)pyridin-3-yl)benzamide]	6.50	–
6.58	6.61	6.19	Cc1ccncc1-c1ccc2[nH]nc(-c3cc4c(-c5cc(F)cc(NCCN(C)C)c5)cccc4[nH]3)c2c1 [Compound 453, N^1-(3-Fluoro-5-(2-(5-(4-methylpyridin-3-yl)-1H-indazol-3-yl)-1H-indol-4-yl)phenyl)-N^2,N^2-dimethylethane-1,2-diamine]	5.75	–
6.52	6.08	6.25	Cc1ccncc1-c1ccc2[nH]nc(-c3cc4c(-c5cccc(F)c5)cccc4[nH]3)c2c1 [Compound 5, 3-(4-(3-Fluorophenyl)-1H-indol-2-yl)-5-(4-methylpyridin-3-yl)-1H-indazole]	6.13	–
7.68	8.05	7.12	CN(C)CCNc1cc(F)cc(-c2cccc3[nH]c(-c4n[nH]c5ccc(-c6cncc(NC(=O)C7CC7)c6)cc45)cc23)c1 [Compound 468, N-(5-(3-(4-(3-((2-(Dimethylamino)ethyl)amino)-5-fluorophenyl)-1H-indol-2-yl)-1H-indazol-5-yl)pyridin-3-yl)cyclopropanecarboxamide]	6.76	–
6.60	< 5.00	5.96	COc1cncc(-c2ccc3[nH]nc(-c4cc5c(-c6ccc(C)s6)cccc5[nH]4)c3c2)c1 [Compound 768, 5-(5-Methoxypyridin-3-yl)-3-(4-(5-methylthiophen-2-yl)-1H-indol-2-yl)-1H-indazole]	–	49.8
